# According to patent publication US9433621B2, “Substituted pyridine and pyrimidine derivatives and their use in treating viral infections” (Merck Sharp & Dohme Corp., priority 2010, dated 2016):
# System: HCV replicon
# Assay: Cell-Based HCV Replicon Assay
# Conditions: Hepatitis C virus, 72 h; Table V, class codes; replicon cells, day 3, real time PCR; EC90 = concentration for ΔCT=3.2 over baseline; read-out: EC90 (uM) range
# Procedure: Cell-Based HCV Replicon Assay
# To measure cell-based anti-HCV activity of the compounds of the present invention, replicon cells were seeded at 5000 cells/well in 96-well collagen I-coated Nunc plates in the presence of the compound of the invention. Various concentrations of a compound of the invention, typically in 10 serial 2-fold dilutions, were added to the assay mixture, the starting concentration of the compound ranging from 25 μM to 1 μM. The final concentration of DMSO was 0.5%, fetal bovine serum was 10%, in the assay media. Cells were harvested on day 3 by the addition of 1× cell lysis buffer (Ambion cat #8721). The replicon RNA level was measured using real time PCR (Taqman assay). The amplicon was located in 5B. The PCR primers were: 5B.2F, ATGGACAGGCGCCCTGA; 5B.2R, […]; the probe sequence was FAM-labeled CACGCCATGCGCTGCGG. GAPDH RNA was used as endogenous control and was amplified in the same reaction as NS5B (multiplex PCR) using primers and VIC-labeled probe recommended by the manufacturer (PE Applied Biosystem). The real-time RT-PCR reactions were run on ABI PRISM® 7900HT Sequence Detection System using the following program: 48′C for 30 min, 95′C for 10 min, 40 cycles of 95′C for 15 sec, 60′C for 1 min. The ΔCT values (CT5B-CTGAPDH) were plotted against the concentration of test compound and fitted to the sigmoid dose-response model using Graph Pad PRISM® software. EC50 was defined as the concentration of inhibitor necessary to achieve ΔCT=1 over the projected baseline; EC90 the concentration necessary to achieve ΔCT=3.2 over the baseline. Alternatively, to quantitate the absolute amount of replicon RNA, a standard curve was established by including serially diluted T7 transcripts of replicon RNA in the Taqman assay. All Taqman reagents were from PE Applied Biosystems. Such an assay procedure was described in detail in e.g. Malcolm et al., Antimicrobial Agents and Chemotherapy 50: 1013-1020 (2006).
# HCV Replicon assay data for compounds of the invention that were tested were obtained using the above method.
row,SMILES,EC90 [µM]
1,Cc1nc(N)nc(N[C@@H]2C[C@H](C(=O)Nc3ccccc3)[C@@H](O)[C@H]2O)c1-c1nc2c(C3CC3)nccc2s1 [Example 4948],< 0.5
2,COCCNc1nc(C)c(-c2nc3c(C4CC4)nccc3s2)c(N[C@@H]2C[C@H](C(=O)Nc3ccccc3)[C@@H](O)[C@H]2O)n1 [Example 4949],< 0.5
3,Cc1nc(NCC2CC2)nc(N[C@@H]2C[C@H](C(=O)Nc3ccccc3)[C@@H](O)[C@H]2O)c1-c1nc2c(C3CC3)nccc2s1 [Example 4950],< 0.5
4,Cc1nc(N[C@H](C)c2ccc(OC(F)(F)F)cc2)nc(N[C@@H]2C[C@H](C(=O)Nc3ccccc3)[C@@H](O)[C@H]2O)c1-c1nc2c(C3CC3)nccc2s1 [Example 4951],0.5 to 5
5,Cc1cc2sc(-c3c(C)nc(N[C@H](C)C4CC4)nc3N[C@@H]3C[C@H](CO)[C@@H](O)[C@H]3O)nc2cn1 [Example 4952],< 0.5
6,CO[C@H](C)CNc1nc(C)c(-c2nc3cnc(C)cc3s2)c(N[C@@H]2C[C@H](CO)[C@@H](O)[C@H]2O)n1 [Example 4953],< 0.5
7,COCCNc1nc(C)c(-c2nc3c(C)nccc3s2)c(N[C@@H]2C[C@H](C(C)(C)F)[C@@H](O)[C@H]2O)n1 [Example 4954],< 0.5
8,Cc1nc(N[C@H](C)c2ccc(OC(F)(F)F)cc2)nc(N[C@@H]2C[C@H](C(=O)Nc3ccncc3)[C@@H](O)[C@H]2O)c1-c1nc2c(C3CC3)nccc2s1 [Example 4955],< 0.5
9,COCCNc1nc(C)c(-c2nc3c(C4CC4)nccc3s2)c(N[C@@H]2C[C@H](C(=O)Nc3ccncc3)[C@@H](O)[C@H]2O)n1 [Example 4956],< 0.5
10,Cc1nc(NCC2CC2)nc(N[C@@H]2C[C@H](C(=O)Nc3ccncc3)[C@@H](O)[C@H]2O)c1-c1nc2c(C3CC3)nccc2s1 [Example 4957],< 0.5

# Same assay, conditions: Hepatitis C virus; HCV Replicon assay, EC90 range, Table VI; read-out: EC90
row,SMILES,EC90 [µM]
1,Cc1ccc(S(=O)(=O)C[C@H]2C[C@@H](Nc3nc(NCCSC(C)(C)C)nc(C)c3-c3nc4c(C)nccc4s3)[C@H](O)[C@@H]2O)cc1F [Example 5001],< 0.5
2,Cc1cc(S(=O)(=O)C[C@H]2C[C@@H](Nc3nc(NC4CC4)nc(C)c3-c3nc4c(C)nccc4s3)[C@H](O)[C@@H]2O)ccc1F [Example 5002],< 0.5
3,Cc1ccc(S(=O)(=O)C[C@H]2C[C@@H](Nc3nc(NC4CC4)nc(C)c3-c3nc4c(C)nccc4s3)[C@H](O)[C@@H]2O)cc1F [Example 5003],< 0.5
4,Cc1nc(NC2CC2)nc(N[C@@H]2C[C@H](CS(=O)(=O)c3ccc(F)c(F)c3)[C@@H](O)[C@H]2O)c1-c1nc2c(C)nccc2s1 [Example 5004],< 0.5
5,COc1ccc(S(=O)(=O)C[C@H]2C[C@@H](Nc3nc(NC4CC4)nc(C)c3-c3nc4c(C)nccc4s3)[C@H](O)[C@@H]2O)cc1F [Example 5005],< 0.5
6,Cc1cc(S(=O)(=O)C[C@H]2C[C@@H](Nc3nc(NCCSC(C)(C)C)nc(C)c3-c3nc4c(C)nccc4s3)[C@H](O)[C@@H]2O)ccc1F [Example 5006],< 0.5
7,Cc1nc(NCCSC(C)(C)C)nc(N[C@@H]2C[C@H](CS(C)(=O)=O)[C@@H](O)[C@H]2O)c1-c1nc2c(C3CC3)nccc2s1 [Example 5007],< 0.5
8,Cc1cc(S(=O)(=O)C[C@H]2C[C@@H](Nc3nc(NCC4CC4)nc(C)c3-c3nc4c(C)nccc4s3)[C@H](O)[C@@H]2O)ccc1F [Example 5008],< 0.5
9,Cc1cc(S(=O)(=O)C[C@H]2C[C@@H](Nc3nc(NCC(F)(F)F)nc(C)c3-c3nc4c(C)nccc4s3)[C@H](O)[C@@H]2O)ccc1F [Example 5009],< 0.5
10,Cc1cc(S(=O)(=O)C[C@H]2C[C@@H](Nc3nc(NCC(C)(C)C)nc(C)c3-c3nc4c(C)nccc4s3)[C@H](O)[C@@H]2O)ccc1F [Example 5010],< 0.5
11,COCCNc1nc(C)c(-c2nc3c(C)nccc3s2)c(N[C@@H]2C[C@H](CS(=O)(=O)c3ccc(F)c(C)c3)[C@@H](O)[C@H]2O)n1 [Example 5011],< 0.5
12,CO[C@H](C)CNc1nc(C)c(-c2nc3c(C)nccc3s2)c(N[C@@H]2C[C@H](CS(=O)(=O)c3ccc(F)c(C)c3)[C@@H](O)[C@H]2O)n1 [Example 5012],< 0.5
13,COc1ccc(S(=O)(=O)C[C@H]2C[C@@H](Nc3nc(NCC4CC4)nc(C)c3-c3nc4c(C)nccc4s3)[C@H](O)[C@@H]2O)cc1F [Example 5013],< 0.5
14,COc1ccc(S(=O)(=O)C[C@H]2C[C@@H](Nc3nc(NCCSC(C)(C)C)nc(C)c3-c3nc4c(C)nccc4s3)[C@H](O)[C@@H]2O)cc1F [Example 5014],< 0.5
15,C#CCCNc1nc(C)c(-c2nc3c(C4CC4)nccc3s2)c(N[C@@H]2C[C@H](CS(C)(=O)=O)[C@@H](O)[C@H]2O)n1 [Example 5015],< 0.5
16,CCc1nccc2sc(-c3c(C)nc(NC4CC4)nc3N[C@@H]3C[C@H](CS(=O)(=O)c4ccc(F)c(C)c4)[C@@H](O)[C@H]3O)nc12 [Example 5016],< 0.5
17,CCc1nccc2sc(-c3c(C)nc(NCC4CC4)nc3N[C@@H]3C[C@H](CS(=O)(=O)c4ccc(F)c(C)c4)[C@@H](O)[C@H]3O)nc12 [Example 5017],< 0.5
18,CCc1nccc2sc(-c3c(C)nc(NCC(C)(C)C)nc3N[C@@H]3C[C@H](CS(=O)(=O)c4ccc(F)c(C)c4)[C@@H](O)[C@H]3O)nc12 [Example 5018],< 0.5
19,CCc1nccc2sc(-c3c(C)nc(NCC(F)(F)F)nc3N[C@@H]3C[C@H](CS(=O)(=O)c4ccc(F)c(C)c4)[C@@H](O)[C@H]3O)nc12 [Example 5019],< 0.5

row,SMILES,EC90 [µM]
1,Cc1cc(S(=O)(=O)C[C@H]2C[C@@H](Nc3nc(N)nc(C)c3-c3nc4c(C)nccc4s3)[C@H](O)[C@@H]2O)ccc1F [Example 5020],< 0.5
2,CCc1nccc2sc(-c3c(C)nc(N)nc3N[C@@H]3C[C@H](CS(=O)(=O)c4ccc(F)c(C)c4)[C@@H](O)[C@H]3O)nc12 [Example 5021],< 0.5
3,CCNC(=O)N[C@H]1C[C@@H](Nc2nc(N[C@H](C)C3CC3)nc(C)c2-c2nc3c(C4CC4)nccc3s2)[C@H](O)[C@@H]1O [Example 5022],< 0.5
4,Cc1nc(N[C@H](C)C2CC2)nc(N[C@@H]2C[C@H](NC(=O)NCc3ccc(F)cc3)[C@@H](O)[C@H]2O)c1-c1nc2c(C3CC3)nccc2s1 [Example 5023],< 0.5
5,CCNC(=S)N[C@H]1C[C@@H](Nc2nc(N[C@H](C)C3CC3)nc(C)c2-c2nc3c(C4CC4)nccc3s2)[C@H](O)[C@@H]1O [Example 5024],< 0.5
6,CNS(=O)(=O)C[C@H]1C[C@@H](Nc2nc(NCC3CC3)nc(C)c2-c2nc3c(C)nccc3s2)[C@H](O)[C@@H]1O [Example 5025],< 0.5
7,CNS(=O)(=O)C[C@H]1C[C@@H](Nc2nc(NCC3CC3)nc(C)c2-c2nc3c(C)nc(C)cc3s2)[C@H](O)[C@@H]1O [Example 5026],< 0.5
8,CNS(=O)(=O)C[C@H]1C[C@@H](Nc2nc(NC3CC3)nc(C)c2-c2nc3c(C)nc(C)cc3s2)[C@H](O)[C@@H]1O [Example 5027],< 0.5
9,Cc1nc(N[C@H](C)c2c(F)c(F)c(C)c(F)c2F)nc(N[C@@H]2C[C@H](C(C)(C)O)[C@@H](O)[C@H]2O)c1-c1nc2c(N)nccc2s1 [Example 5028],< 0.5
10,Cc1nc(N)nc(N[C@@H]2C[C@H](C(C)(C)O)[C@@H](O)[C@H]2O)c1-c1nc2c(N)nccc2s1 [Example 5029],< 0.5
11,Cc1nc(NC2(C(C)C)CC2)nc(N[C@@H]2C[C@H](C(C)(C)O)[C@@H](O)[C@H]2O)c1-c1nc2c(C)nccc2s1 [Example 5030],0.5 to 5
12,Cc1nc(NC2(CC(C)C)CC2)nc(N[C@@H]2C[C@H](C(C)(C)O)[C@@H](O)[C@H]2O)c1-c1nc2c(C)nccc2s1 [Example 5031],0.5 to 5
13,Cc1nc(NC2COC3(CCCCC3)C2)nc(N[C@@H]2C[C@H](C(C)(C)O)[C@@H](O)[C@H]2O)c1-c1nc2c(C)nccc2s1 (stereo partly drawn) [Example 5032],< 0.5
14,CO[C@H](C)CNc1nc(C)c(-c2nc3c(C)nccc3s2)c(N[C@@H]2C[C@H](COc3c(F)ccc(F)c3F)[C@@H](O)[C@H]2O)n1 [Example 5033],< 0.5
15,CO[C@H](C)CNc1nc(C)c(-c2nc3c(C)nccc3s2)c(N[C@@H]2C[C@H](COc3cc(F)c(F)cc3F)[C@@H](O)[C@H]2O)n1 [Example 5034],< 0.5
16,Cc1nc(NCC(F)(F)C(F)(F)F)nc(N[C@@H]2C[C@H](C(C)(C)O)[C@@H](O)[C@H]2O)c1-c1nc2c(N)nccc2s1 [Example 5035],< 0.5
17,COCCNc1nc(C)c(-c2nc3c(C)nccc3s2)c(N[C@@H]2C[C@H](C(C)(C)NS(C)(=O)=O)[C@@H](O)[C@H]2O)n1 [Example 5036],< 0.5
18,COC[C@@H](C)Nc1nc(C)c(-c2nc3c(C)nccc3s2)c(N[C@@H]2C[C@H](C(C)(C)NS(C)(=O)=O)[C@@H](O)[C@H]2O)n1 [Example 5037],< 0.5
19,CO[C@H](C)CNc1nc(C)c(-c2nc3c(C)nccc3s2)c(N[C@@H]2C[C@H](C(C)(C)NS(C)(=O)=O)[C@@H](O)[C@H]2O)n1 [Example 5038],< 0.5
